Drawing on article PMC5497837 (Journal of basic and clinical physiology and pharmacology, 2016), this text covers EC50 for 1 molecule.

This assay deals with CB1 cannabinoid receptor (CB1R) (Mus musculus, UniProt P47746). Description: inhibition of forskolin-activated cAMP accumulation in N18TG2 cells. The class given is cell-based.

Structures are written as SMILES. pEC50: −log10 of the molar value.

Sequence of CB1 cannabinoid receptor (CB1R) (P47746 whole entry): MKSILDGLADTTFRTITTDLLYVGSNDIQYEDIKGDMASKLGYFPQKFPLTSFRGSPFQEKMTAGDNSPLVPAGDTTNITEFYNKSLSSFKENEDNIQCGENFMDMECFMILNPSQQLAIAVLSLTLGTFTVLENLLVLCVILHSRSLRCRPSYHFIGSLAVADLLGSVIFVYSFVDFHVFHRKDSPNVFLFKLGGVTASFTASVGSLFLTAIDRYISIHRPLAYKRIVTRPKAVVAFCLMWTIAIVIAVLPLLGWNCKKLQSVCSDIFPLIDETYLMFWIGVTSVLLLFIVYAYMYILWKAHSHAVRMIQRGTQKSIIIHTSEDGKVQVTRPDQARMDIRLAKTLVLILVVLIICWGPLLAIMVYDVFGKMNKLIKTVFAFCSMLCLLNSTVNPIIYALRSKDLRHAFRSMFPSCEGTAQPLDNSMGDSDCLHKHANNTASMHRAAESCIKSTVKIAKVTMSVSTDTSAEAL

As to `CCCCCCC(C)(C)c1ccc([C@@H]2C[C@@H](O)CC[C@H]2CCCO)c(O)c1` [CP55940, (-)-3-[2-hydroxyl-4-(1,1-dimethylheptyl)phenyl]-4-[3-hydroxylpropyl] cyclohexan-1-ol], the pEC50 was 8.51.

One may read the pEC50 as −log10 of the EC50, conventionally taken in molar units. The low end stands for a large EC50, the high end for a small EC50.
